How the values were obtained:
CYP3A4 = details: role: substrate; cited from earlier work
HSA = details: cited from earlier work
ABCB1/ABCG2 = details: cited from earlier work
[1] = in vivo; cited from earlier work
human plasma proteins = details: cited from earlier work
mTORC1 at Ser2448 = details: cited from earlier work
pAKT = assay: Western blot analysis of pAKT in MCF7 cells; type: cell-based; details: fulvestrant combined with nab-sirolimus, FIG. 3, effect on nab-sirolimus-induced increase
Experimental: (§1) A series of single-agent treatments of fulvestrant or nab-sirolimus and combination treatments of both fulvestrant and nab-sirolimus were separately applied to aliquots of hormone receptor positive breast cancer cell lines (either MCF7 or MDA-MB-361). The series including varying concentration of nab-sirolimus (20 nM or 80 nM) and fulvestrant (0.98 nM to 1000 nM). Following the application of the individual treatments, the cell aliquots were incubated for 5 days. Subsequently, the antiproliferative and cytotoxic effects of single agent and combination treatments were assessed using an automated trypan blue exclusion assay.
Western blot analysis was performed to assess pAKT in MCF7 cells. […] Thus, addition of fulvestrant, to mTOR targeting agents, such as nab-sirolimus may overcome mechanisms of resistance.

p4EBP1 = assay: Western blot analysis of p4EBP1 in MCF7 cells; type: cell-based; details: single agent, FIG. 3
Experimental: as §1
Western blot analysis was performed to assess p4EBP1 in MCF7 cells. […] Thus, addition of nab-sirolimus to endocrine-based therapies, such as fulvestrant, may overcome mechanisms of resistance.

CO[C@H]1C[C@@H]2CC[C@@H](C)[C@@](O)(O2)C(=O)C(=O)N2CCCC[C@H]2C(=O)O[C@H]([C@H](C)C[C@@H]2CC[C@@H](O)[C@H](OC)C2)CC(=O)[C@H](C)/C=C(\C)[C@@H](O)[C@@H](OC)C(=O)[C@H](C)C[C@H](C)/C=C/C=C/C=C/1C [Sirolimus, sirolimus]
metabolism (CYP3A4): metabolized primarily by CYP3A4 | binding to HSA (HSA): shown to bind HSA

CC(C)c1cccc(C(C)C)c1O [propofol]
binding to HSA (HSA): shown to bind HSA

COc1ccc(COc2cc3oc(=O)c4cc(C(C)O)ccc4c3cc2OC)cc1 (stereo not drawn) [Palomid 529]
affinity for ABCB1/ABCG2 (ABCB1/ABCG2): lacks affinity for ABCB1/ABCG2 | brain penetration [1]: good brain penetration

CC(=O)O[C@@]12CO[C@@H]1C[C@H](O)[C@@]1(C)C(=O)[C@H](O)C3=C(C)[C@@H](OC(=O)[C@H](O)[C@@H](NC(=O)OC(C)(C)C)c4ccccc4)C[C@@](O)([C@@H](OC(=O)c4ccccc4)[C@H]21)C3(C)C [docetaxel]
binding to human plasma proteins (human plasma proteins): shown to bind to human plasma proteins

COc1ccc(-c2ccc3c(N4CCOCC4)nc(N4C[C@@H](C)O[C@@H](C)C4)nc3n2)cc1CO [KU-0063794]
inhibition of phosphorylation of mTORC1 at Ser2448 (mTORC1 at Ser2448): inhibits the phosphorylation of mTORC1 at Ser2448 in a dose-dependent and time-dependent manner

C[C@]12CC[C@@H]3c4ccc(O)cc4C[C@@H](CCCCCCCCC[S+]([O-])CCCC(F)(F)C(F)(F)F)[C@H]3[C@@H]1CC[C@@H]2O (stereo partly drawn) [fulvestrant]
pAKT level in combination (pAKT): reversed by combination with fulvestrant in a dose-dependent manner | p4EBP1 level (p4EBP1): increased p4EBP1 in response to fulvestrant in a dose-dependent manner
